Laboratory results: patent publication US7612065B2, “Inhibitors of c-JUN N-terminal kinases (JNK)” (priority 2007, dated 2009)

Biological target: T1, JNK3 (Homo sapiens, UniProt P53779)
T1 construct: One such construct encodes amino acid residues Ser40-Glu402 of JNK3α1 and is preceded by Met and Gly residues; Met-Gly (initiation methionine plus glycine added for the NcoI site); made in house; host or cells: E. coli BL21 (DE3)
Test: JNK inhibition assay: spectrophotometric coupled-enzyme assay with activated JNK3
Format: biochemical
Details: activated JNK3 10 nM, 10 μM ATP, 200 μM EGF receptor peptide, 30° C., competitive inhibition model
Summary of the method: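 Activated (doubly phosphorylated, MKK7(DD)-activated) human JNK3, 10 nM, preincubated 10 min at 30 °C with inhibitor in 0.1 M HEPES pH 7.5, 10 mM MgCl2, 200 μM EGF receptor peptide, PK/LDH-coupled. Started with 10 μM ATP; A340 decrease followed at 30 °C. Ki from competitive inhibition model fit.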

T1 sequence (P53779 40-402): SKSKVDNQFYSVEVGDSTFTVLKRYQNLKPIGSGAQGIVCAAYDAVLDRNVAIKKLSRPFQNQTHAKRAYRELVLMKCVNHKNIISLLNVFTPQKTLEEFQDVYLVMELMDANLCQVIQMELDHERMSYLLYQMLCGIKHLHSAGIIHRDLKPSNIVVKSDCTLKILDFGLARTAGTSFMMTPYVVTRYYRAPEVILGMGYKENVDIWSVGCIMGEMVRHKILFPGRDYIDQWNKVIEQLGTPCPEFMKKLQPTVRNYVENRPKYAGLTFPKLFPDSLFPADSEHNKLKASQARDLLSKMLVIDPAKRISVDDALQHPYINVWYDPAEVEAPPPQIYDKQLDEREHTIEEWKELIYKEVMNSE

| SMILES | Ki [nM] |
| --- | --- |
| O=C(Nc1ccc2c(c1)N(Cc1cc(F)cc3c1OCOC3)C(=O)/C2=N\O)c1cc(=O)c2ccccc2o1 [Compound 218] | ≥ 1000 |
| Cc1cc(C)c2c(c1)/C(=N/O)C(=O)N2Cc1ccccc1C#N [Compound 89] | ≥ 1000 |
| CC(C)CCN(CCC(C)C)c1ccc2c(c1)/C(=N/O)C(=O)N2Cc1cc(F)cc2c1OCOC2 [Compound 308] | ≥ 1000 |
| N#Cc1ccccc1CN1C(=O)/C(=N\O)c2ccccc21 [Compound 63] | ≥ 1000 |
| O=C(Nc1ccc2c(c1)N(Cc1cc(F)cc3c1OCOC3)C(=O)/C2=N\O)c1cccnc1 [Compound 254] | < 1000 |
| O=C1/C(=N\O)c2c(Br)cccc2N1Cc1cc(F)cc2c1OCOC2 [Compound 201] | < 1000 |
| O=C(O)CCc1ccc(-c2ccc3c(c2)N(Cc2cc(F)cc4c2OCOC4)C(=O)/C3=N\O)cc1 [Compound 335] | < 1000 |
| C=Cc1cccc2c1/C(=N/O)C(=O)N2Cc1cc(F)cc2c1OCOC2 [Compound 307] | < 1000 |
| O=C1/C(=N\O)c2ccccc2N1Cc1ccc(Cl)cc1Cl [Compound 7] | < 1000 |
| O=C1/C(=N\O)c2cc(F)ccc2N1Cc1ccc([N+](=O)[O-])cc1 [Compound 55] | ≥ 1000 |
| COC(=O)CC(=O)Nc1ccc2c(c1)N(Cc1cc(F)cc3c1OCOC3)C(=O)/C2=N\O [Compound 259] | < 1000 |
| O=C1/C(=N\O)c2cc(Br)ccc2N1Cc1cc(F)cc2c1OCOC2 [Compound 278] | < 1000 |
| COc1ccccc1C(=O)Nc1ccc2c(c1)N(Cc1cc(F)cc3c1OCOC3)C(=O)/C2=N\O [Compound 256] | < 1000 |
| COc1cc(CN2C(=O)/C(=N\O)c3cc(F)ccc32)cc(OC)c1 [Compound 84] | < 1000 |
| O=C(CN1C(=O)/C(=N\O)c2cc(Br)ccc21)OCc1ccccc1 [Compound 158] | ≥ 1000 |
| O=C(Nc1ccc2c(c1)N(Cc1cc(F)cc3c1OCOC3)C(=O)/C2=N\O)c1ccco1 [Compound 226] | < 1000 |
| Cc1ccc2c(c1)N(Cc1cc(F)cc3c1OCOC3)C(=O)/C2=N\O [Compound 149] | < 1000 |
| COc1cccc(C(=O)Nc2ccc3c(c2)N(Cc2cc(F)cc4c2OCOC4)C(=O)/C3=N\O)c1 [Compound 250] | < 1000 |
| O=C1/C(=N\O)c2cc(OC(F)(F)F)ccc2N1Cc1cccc([N+](=O)[O-])c1 [Compound 106] | ≥ 1000 |
| O=C(Nc1ccc2c(c1)N(Cc1cc(F)cc3c1OCOC3)C(=O)/C2=N\O)C1CCCCC1 [Compound 346] | ≥ 1000 |
| O=C1/C(=N\O)c2ccccc2N1Cc1cccc(Oc2ccccc2)c1 [Compound 66] | ≥ 1000 |
| Cc1cc(C)c2c(c1)/C(=N/O)C(=O)N2Cc1cc(F)cc2c1OCOC2 [Compound 95] | ≥ 1000 |
| CC(C)CNc1ccc2c(c1)/C(=N/O)C(=O)N2Cc1cc(F)cc2c1OCOC2 [Compound 311] | ≥ 1000 |
| O=C1/C(=N\O)c2cc(Cl)ccc2N1Cc1cc(F)cc2c1OCCO2 [Compound 75] | < 1000 |
| O=C(NCC1CCCO1)c1ccc2c(c1)N(Cc1cc(F)cc3c1OCOC3)C(=O)/C2=N\O (centres unmarked) [Compound 290] | ≥ 1000 |
| COc1ccc(-c2ccc3c(c2)N(Cc2cc(F)cc4c2OCOC4)C(=O)/C3=N\O)cc1OC [Compound 332] | < 1000 |

| SMILES | Ki [nM] |
| --- | --- |
| O=C1/C(=N\O)c2c(-c3ccsc3)cccc2N1Cc1cc(F)cc2c1OCOC2 [Compound 205] | ≥ 1000 |
| COc1cc(CN2C(=O)/C(=N\O)c3ccccc32)cc(OC)c1 [Compound 68] | < 1000 |
| O=C(NCCc1c[nH]cn1)c1ccc2c(c1)N(Cc1cc(F)cc3c1OCOC3)C(=O)/C2=N\O [Compound 292] | ≥ 1000 |
| COc1ccccc1-c1nc(CN2C(=O)/C(=N\O)c3ccccc32)no1 [Compound 64] | ≥ 1000 |
| COc1cc(CN2C(=O)/C(=N\O)c3c(Br)cccc32)cc(OC)c1 [Compound 199] | < 1000 |
| Cc1cccc(CN2C(=O)/C(=N\O)c3cc(Br)ccc32)c1 [Compound 27] | ≥ 1000 |
| COc1ccc(-c2nc(CN3C(=O)/C(=N\O)c4cc(C)cc(C)c43)no2)cc1 [Compound 91] | ≥ 1000 |
| CCCCc1cccc2c1/C(=N/O)C(=O)N2Cc1cc(F)cc2c1OCOC2 [Compound 337] | < 1000 |
| O=C(c1ccc2c(c1)/C(=N\O)C(=O)N2Cc1cc(F)cc2c1OCOC2)c1ccccc1Cl [Compound 356] | < 1000 |
| O=C(Cc1cccs1)Nc1ccc2c(c1)N(Cc1cc(F)cc3c1OCOC3)C(=O)/C2=N\O [Compound 219] | < 1000 |
| O=C(c1ccc2c(c1)/C(=N\O)C(=O)N2Cc1cc(F)cc2c1OCOC2)c1cccc(Cl)c1Cl [Compound 355] | < 1000 |
| O=C1/C(=N\O)c2ccc(C(F)(F)F)cc2N1Cc1cc(F)cc2c1OCOC2 [Compound 165] | < 1000 |
| O=C1/C(=N\O)c2cc(F)ccc2N1Cc1ccc(F)cc1 [Compound 54] | ≥ 1000 |
| Cc1cc(C)c2c(c1)N(Cc1cc(F)cc3c1OCOC3)C(=O)/C2=N\O [Compound 167] | < 1000 |
| Cc1ccc(-c2ccc3c(c2)N(Cc2cc(F)cc4c2OCOC4)C(=O)/C3=N\O)cc1 [Compound 333] | ≥ 1000 |
| O=C(Nc1ccc2c(c1)N(Cc1cc(F)cc3c1OCOC3)C(=O)/C2=N\O)c1ccc(F)cc1 [Compound 248] | < 1000 |
| O=C1/C(=N\O)c2ccc(-c3ccc(F)cc3F)cc2N1Cc1cc(F)cc2c1OCOC2 [Compound 313] | < 1000 |
| Cc1cc(C)c2c(c1)/C(=N/O)C(=O)N2Cc1ccccn1 [Compound 110] | ≥ 1000 |
| COc1ccc2c(c1)N(Cc1cc(F)cc3c1OCOC3)C(=O)/C2=N\O [Compound 156] | < 1000 |
| O=C1/C(=N\O)c2cc(Cl)ccc2N1Cc1cccc(C(F)(F)F)c1 [Compound 15] | ≥ 1000 |
| O=C(Nc1ccc2c(c1)N(Cc1cc(F)cc3c1OCOC3)C(=O)/C2=N/O)c1cccc(Oc2ccccc2)c1 [Compound 320] | ≥ 1000 |
| O=C(NCCc1ccccn1)c1ccc2c(c1)N(Cc1cc(F)cc3c1OCOC3)C(=O)/C2=N\O [Compound 239] | ≥ 1000 |
| Cc1cc2c(c(CN3C(=O)/C(=N\O)c4ccc(C(=O)O)cc43)c1)OCOC2 [Compound 216] | < 1000 |
| CC(=O)Nc1ccc2c(c1)N(Cc1cc(F)cc3c1OCOC3)C(=O)/C2=N\O [Compound 210] | < 1000 |
| O=C1/C(=N\O)c2c(Cl)cc(Cl)cc2N1Cc1cc(F)cc2c1OCOC2 [Compound 196] | < 1000 |
| O=C(O)CCCN(CCCC(=O)O)c1ccc2c(c1)/C(=N/O)C(=O)N2Cc1cc(F)cc2c1OCOC2 [Compound 309] | ≥ 1000 |

| SMILES | Ki [nM] |
| --- | --- |
| COc1ccc(CN2C(=O)/C(=N\O)c3cc(C)cc(C)c32)cc1 [Compound 87] | ≥ 1000 |
| O=C(NCCN1CCCCC1)c1ccc2c(c1)N(Cc1cc(F)cc3c1OCOC3)C(=O)/C2=N\O [Compound 298] | ≥ 1000 |
| O=C(Nc1ccc2c(c1)N(Cc1cc(F)cc3c1OCOC3)C(=O)/C2=N\O)c1cc2ccccc2o1 [Compound 221] | < 1000 |
| O=C1/C(=N\O)c2ccccc2N1Cc1cccc(F)c1 [Compound 20] | ≥ 1000 |
| Cc1cc(Cl)cc2c1N(Cc1cccc([N+](=O)[O-])c1)C(=O)/C2=N\O [Compound 98] | < 1000 |
| COc1cc(CN2C(=O)/C(=N\O)c3cc(Cl)cc(C)c32)cc(OC)c1 [Compound 102] | < 1000 |
| COc1ccc(CCNC(=O)c2ccc3c(c2)N(Cc2cc(F)cc4c2OCOC4)C(=O)/C3=N\O)cc1OC [Compound 232] | ≥ 1000 |
| O=C(Nc1ccc2c(c1)/C(=N/O)C(=O)N2Cc1ccccc1)c1ccccc1 [Compound 115] | ≥ 1000 |
| N#Cc1cccc2c1/C(=N/O)C(=O)N2Cc1cc(F)cc2c1OCOC2 [Compound 212] | ≥ 1000 |
| O=C1/C(=N\O)c2cc(Cl)ccc2N1Cc1ccc(Cl)c(Cl)c1 [Compound 13] | < 1000 |
| O=C(Nc1ccc2c(c1)N(Cc1cc(F)cc3c1OCOC3)C(=O)/C2=N\O)c1ccc(Cl)cc1Cl [Compound 252] | ≥ 1000 |
| N#CCC(=O)Nc1ccc2c(c1)N(Cc1cc(F)cc3c1OCOC3)C(=O)/C2=N\O [Compound 217] | < 1000 |
| O=C1/C(=N\O)c2cc(-c3ccc(CO)cc3)ccc2N1Cc1cc(F)cc2c1OCOC2 [Compound 283] | ≥ 1000 |
| O=C(NCCN1CCOCC1)c1ccc2c(c1)N(Cc1cc(F)cc3c1OCOC3)C(=O)/C2=N\O [Compound 240] | ≥ 1000 |
| COC(=O)CNC(=O)c1ccc2c(c1)N(Cc1cc(F)cc3c1OCOC3)C(=O)/C2=N\O [Compound 288] | ≥ 1000 |
| COc1ccc(CN2C(=O)/C(=N\O)c3cc(OC(F)(F)F)ccc32)cc1 [Compound 105] | ≥ 1000 |
| CCN(Cc1ccccc1)C(=O)c1ccc2c(c1)N(Cc1cc(F)cc3c1OCOC3)C(=O)/C2=N\O [Compound 242] | ≥ 1000 |
| O=C1/C(=N\O)c2cc(F)ccc2N1Cc1ccccc1F [Compound 59] | ≥ 1000 |
| CN(C)CC(=O)Nc1ccc2c(c1)N(Cc1cc(F)cc3c1OCOC3)C(=O)/C2=N\O [Compound 223] | ≥ 1000 |
| COc1cc(CN2C(=O)/C(=N\O)c3ccc(C)cc32)cc(OC)c1 [Compound 150] | < 1000 |
| O=C1/C(=N\O)c2cc(N(CC3CCCCC3)CC3CCCCC3)ccc2N1Cc1cc(F)cc2c1OCOC2 [Compound 310] | ≥ 1000 |
| COc1cc(CN2C(=O)/C(=N\O)c3ccc(C(F)(F)F)cc32)cc(OC)c1 [Compound 164] | < 1000 |
| CC(C)CCNC(=O)c1ccc2c(c1)N(Cc1cc(F)cc3c1OCOC3)C(=O)/C2=N\O [Compound 294] | ≥ 1000 |
| COc1ccc(CN2C(=O)/C(=N\O)c3ccccc32)cc1 [Compound 61] | ≥ 1000 |
| COc1ccc(C(=O)Nc2ccc3c(c2)N(Cc2cc(F)cc4c2OCOC4)C(=O)/C3=N/O)cc1OCc1ccccc1 [Compound 321] | < 1000 |
